We go through three compounds from PMC12624573, “The antigen presentation landscape of cytokine-stressed human pancreatic islets” (Cell reports, 2025).

The target in experiment [1] is HLA-DRB1*03:01 (Homo sapiens, UniProt P01903+P01911, A100K/A102G/A103R/A169T/F55Y/I96L/K41T/L162R/M171V/P40S/Q125H/Q178H/Q39Y/R42S/S66N/T106N/T262R/W38E/Y61H). The experiment can be described thus: Fluorescence polarization competition peptide binding assay, HLA-DRB1*03:01.
Experiment [2] concerns CD4+ T cells from PBMC. The experiment can be described thus: IFN-γ ELISpot, PBMC-derived in vitro expanded CD4+ T cell lines. The experiment is classed as cell-based, human. The note with it: for T1D Donor T cell response / non-T1D Donor T cell response: PBMC T cell lines, responding donors/donors tested; for Recognition by IFN-γ-secreting CD4 T cells (ELISpot): expanded PBMCs from a T1D donor, PTM peptides and native parents.

Experiment [3] concerns islet-derived T cell lines. The experiment in a line: Cytokine bead array (IFN-γ, TNF-α, IL-10), combined islet-derived T cell lines from donors with T1D. The note with it: for islet derived T cell lines response to DR peptide pools or to single peptides: class II (DR) peptide pools or single peptides, IFNg, TNFa, IL-10 secretion.
Setting [4] is: PTM and unmodified native Pool Peptides (pool PTM 1), long peptides.
The mark [5] stands for this setting: SEC (Secretory) DR3 Peptides Set.

Residues, ends and D or L forms follow the SMILES beside them. No end group written: not given here. *: point of attachment. Carboxymethyl = O=C(O)C*

As to `CC(C)C[C@H](NC(=O)[C@H](C)NC(=O)[C@H](CCC(=O)O)NC(=O)[C@@H](NC(=O)[C@H](CC(C)C)NC(=O)[C@H](Cc1c[nH]cn1)NC(=O)[C@H](CO)NC(=O)CN)C(C)C)C(=O)N[C@@H](Cc1ccc(O)cc1)C(=O)N[C@@H](CC(C)C)C(=O)N[C@H](C(=O)N[C@@H](CSCC(=O)O)C(=O)NCC(=O)N[C@@H](CCC(=O)O)C(=O)N[C@@H](CCCNC(=N)N)C(=O)NCC(=O)N[C@@H](Cc1ccccc1)C(=O)O)C(C)C` [peptide 146–1, GSHLVEALYLVXGERGF] (H-GSHLVEALYLVC(Carboxymethyl)GERGF-OH; N-terminus and C-terminus assumed), the IC50 in experiment [1] lay within 270 to 300 nM. Also, in experiment [2] (setting [4]), the “T1D Donor T cell response” value was 1/4 and the “non-T1D Donor T cell response” value is 0/4. For the same compound, the “Recognition by IFN-γ-secreting CD4 T cells (ELISpot)” value in experiment [2] was “recognized”.

In experiment [1], GSHLVEALYLVCGERGF [peptide 146] gave a concentration for half-maximal inhibition (IC50) of 270 to 300 nM. Further, in experiment [2] (setting [4]), the “T1D Donor T cell response” value was 1/4 and the “non-T1D Donor T cell response” value is listed as 0/4. Moreover, the “Recognition by IFN-γ-secreting CD4 T cells (ELISpot)” value in experiment [2] is recorded as “recognized”.

With QSIEGGAHEGLQHLGP [peptide 191], the “T1D Donor T cell response” value in experiment [2] (setting [5]) is 0/4. Moreover, in experiment [2] (setting [5]), the “non-T1D Donor T cell response” value was 0/4. The “IL-10 secretion, islet-derived T cell lines” value in experiment [3] (DRB1*03:01+ donor 6550, cytokine bead array (Figure 6H)) is reported as “recognized”. In addition, the entries for the “islet derived T cell lines response to DR peptide pools or to single peptides” value in experiment [3] (donor 6550 lines) and in experiment [3] (donor 6579 lines) were “donor 6550 lines positive with IL-10 secretion” and “donor 6579 lines negative”, respectively.

In general, IC50 refers to the concentration at which inhibition is half-maximal.
